In patent US20210100905A1, “APPLICATION OF COMPOUND OR TRADITIONAL CHINESE MEDICINE EXTRACT IN PREPARATION OF NUCLEIC ACID DELIVERY AGENT, AND RELATED PRODUCTS” (INSTITUTE OF BASIC MEDICAL SCIENCES CHINESE ACADEMY OF …, priority 2018, published 2021):

Assay: In vivo delivery experiment of lipid nucleic acid mixture (Example 13)
Set-up: species or system C57 mice
Details: oral administration, 6 hours; for delivery effect into mouse blood and tissues (heart, spleen, kidney or intestine) compared with POPC: FIG. 117a-146b, 100 μg lipid : 1 nmol sRNA; for delivery of small RNA (PGY-sRNA-26) into heart / delivery of small RNA (PGY-sRNA-26) into intestine / delivery of small RNA (PGY-sRNA-26) into blood / delivery of small RNA (PGY-sRNA-26) into kidney / delivery of small RNA (PGY-sRNA-26) into spleen: 100 μg lipid : 1 nmol sRNA per mouse, 90° C. 15 min
Procedure: 1. Experiment animals: C57 mice, male, approximately 6 weeks old, 20-24g. Mice were raised in the SPF room of the Animal Center of the Institute of Basic Medical Sciences of Chinese Academy of Medical Sciences. The mice were fasted for 12 hours before intragastric administration.
2. Preparation of the mixture of lipid and small RNA: the prepration was conducted on the basis of a dose of 100 μg lipid: lnmol single stranded small RNA PGY-sRNA-26 per mouse as follows: lnmol of each sRNA was dissolved with 500 μl DEPC water in a glass tube, 100 μg corresponding lipid solution No.33, No.35,No.37, No.42, No.43, No.44, No.45, No.46, No.47, No.48, No.49, No.50, No.51, No.52, No.53, No.54, No.55, No.56, No.57, No.58, No.59, No.60, No.61, No.62, No.65, No.66, No.67, No.68, No.69 or No.70 (lipid chloroform solution with a concentration as shown in Table 1-1) was added, pipetted to mix thoroughly. The solution was heated in water bath at 90° C. for 15 min, naturally cooled down, and was administered via gavage.
1) Tissue sampling and extraction of RNA: 6 hours after gavage in mice, 500 μl of blood was taken from the eyeball, and was added 1.5 ml Trizol Reagent LS to thoroughly mix and lyse. Tissue sampling: the mouse was sarcrified by breaking its neck, and the thoracic and abdominal cavities of the mouse was exposed to remove the heart/whole spleen/two kidneys/intestine (5 cm of upper end), which was immediately added 2 ml Trizol Reagent (purchased from Invitrogen) and homogenized until complete lysis with a tissue homogenizer.
2) Reverse transcription of sRNA to cDNA: Reverse Transcription Kit (High-Capacity cDNA Reverse Transcription Kits, Applied Biosystems, cat. no. 4368813), was used to reverse transcribe the total RNA to cDNA, and the reverse system was as follows: template RNA (150 ng/μL) 10 μL, 10× RT buffer, 2.0 μL, 25× dNTP Mix (100 mM) 0.8 μL, random primers 2.0 μL, the Multi Scribe™ reverse Transcriptase 1.0 RNase inhibitor 1.0 μL, nuclease-free H2O 3.2 μL. After a brief centrifugation, the reaction was loaded in a PCR reactor. The reaction conditions were as follows: (1) 25° C., 10 min; (2) 37° C., 120 min; (3) 85° C., 5 min; (4) 4° C., termination of the reaction. After the reaction, 20 μL RNase-free ddH2O was added to make up the final volume to 40 μL.
LightCycler 480 fluorescence quantitative PCR instrument was used, and the PCR reaction conditions were: 95° C. , 5 min for pre-denaturation, followed by the PCR amplification cycle: (1) 95° C., 10 s; (2) 55° C., 10 s; (3) 72° C., 20 s; a total of 40 cycles; 40° C. for 10 s in the end to cool down. The forward primer and reverse primer of the amplification reaction were designed and synthesized by Beijing Qing Ke New Industrial Biotechnology Co., Ltd. (U6 F primer: GTGCAGGGTCCGAGGT (SEQ ID NO: 24), PGY-sRNA-26F primer: […] (SEQ ID NO: 34), reverse primer miR all rev: GTGCACGCTCCGAGGT (SEQ ID NO: 26)).
3) The relative expression amount was calculated by the 2-ΔCt method.
The data were represented in the form of mean±SEM. The parameter difference between the experimental group and the control group was evaluated by unpaired t test. The data were statistically analyzed by GraphPad Prism software, and P<0.05 was considered statistically significant.

Molecule | delivery effect into mouse blood and tissues (heart, spleen, kidney or intestine) compared with POPC | delivery of small RNA (PGY-sRNA-26) into heart | delivery of small RNA (PGY-sRNA-26) into intestine | delivery of small RNA (PGY-sRNA-26) into blood | delivery of small RNA (PGY-sRNA-26) into kidney | delivery of small RNA (PGY-sRNA-26) into spleen
CCCCCC/C=C\CCCCCCCC(=O)OC[C@H](COP(=O)(O)OCC)OC(=O)CCCCCCC/C=C\CCCCCC [No. 58, 1,2-dipalmitoleoyl-sn-glycero-3-phosphoethanol] | significantly better than or equivalent to that of POPC | delivers small RNA | delivers small RNA | – | – | –
CC/C=C\C/C=C\C/C=C\CCCCCCCC(=O)OCC(COC(=O)CCCCCCCCCCCCCCCCC)OC(=O)CCCCCCC/C=C\C/C=C\CCCCC (stereo not drawn) [No. 66, Triglyceride (18:0/18:2/ 18:3)] | significantly better than or equivalent to that of POPC | delivers small RNA | delivers small RNA | delivers small RNA | – | –
CCCC/C=C\CCCCCCCC(=O)O[C@H](COC(=O)CCCCCCCCCCCCCCCCCCC)COP(=O)(O)OCC[N+](C)(C)C [No. 65, 1-eicosanoyl-2-myristoleoyl-sn-glycero-3-phosphocholine] | significantly better than or equivalent to that of POPC | – | delivers small RNA | – | delivers small RNA | –
CC/C=C\C/C=C\C/C=C\CCCCCCCC(=O)OCC(COC(=O)CCCCCCC/C=C\CCCCCCCC)OC(=O)CCCCCCC/C=C\C/C=C\CCCCC (stereo not drawn) [No. 57, Triglyceride (18:1/18:2/ 18:3)] | significantly better than or equivalent to that of POPC | – | – | – | delivers small RNA | –
CCCCCCCCCCCCCCCCCCC[C@@H](O)[C@H](CO)NC(=O)CCCCCCCCCCCCCCCCC [No. 55, C18 dihydroceramide (d22:0/18:0)] | significantly better than or equivalent to that of POPC | delivers small RNA | – | delivers small RNA | delivers small RNA | –
CCCCCCCCCCCCCCCC(=O)N[C@@H](CO)[C@H](O)CCCCCCCCCCCCC [No. 53, C16 dihydroceramide (d16:0/16:0)] | significantly better than or equivalent to that of POPC | delivers small RNA | – | delivers small RNA | delivers small RNA | –
Mono- docosadienoin [No. 42] | significantly better than or equivalent to that of POPC | – | – | – | delivers small RNA | delivers small RNA
CCCCCCCCCCCCCCCCCC(=O)N[C@@H](CO)[C@H](O)CCCCCCCCCCCCCCCCC [No. 54, C18 dihydroceramide (d20:0/18:0)] | significantly better than or equivalent to that of POPC | – | – | delivers small RNA | delivers small RNA | –
CC/C=C\C/C=C\C/C=C\CCCCCCCC(=O)OCC(O)COC(=O)CCCCCCC/C=C\C/C=C\CCCCC (stereo not drawn) [No. 45, 1-Linolein-3-Linolenin] | significantly better than or equivalent to that of POPC | delivers small RNA | delivers small RNA | – | delivers small RNA | delivers small RNA
CCCCCC/C=C\CCCCCCCC(=O)OC[C@H](COP(=O)(O)OCCN(C)C)OC(=O)CCCCCCCCCCCCC [No. 59, 1-palmitoleoyl-2-myristoyl-sn-glycero-3-phospho-ethanolamine-N,N-dimethyl] | significantly better than or equivalent to that of POPC | – | delivers small RNA | – | – | –
CCCCCC/C=C\CCCCCCCCCC(=O)OC[C@H](COP(=O)(O)OCC[N+](C)(C)C)OC(=O)CCCCCCC/C=C\CCCCCC (stereo in doubt) [No. 69, 1-vaccenoyl-2-palmitoleoyl-sn-glycero-3-phosphocholine] | significantly better than or equivalent to that of POPC | – | – | – | delivers small RNA | delivers small RNA
CCCCCCCCCCCCCCCCCC(=O)OCC(COC(=O)CCCCCCCCCCCCCCCCC)OC(=O)CCCCCCCCCCCCCCC [No. 33, 1,3-Stearin-2-Palmitin 1,3-Octadecanoyl-2-Palmitoyl-glycerol] | significantly better than or equivalent to that of POPC | delivers small RNA | – | delivers small RNA | delivers small RNA | –
CCCCCCCC/C=C\CCCCCCCC(=O)OC[C@H](COP(=O)(O)OCCN(C)C)OC(=O)CCCCCCCCCCCCC [No. 61, 1-oleoyl-2-myristoyl-sn-glycero-3-phospho-ethanolamine-N,N-dimethyl] | significantly better than or equivalent to that of POPC | delivers small RNA | delivers small RNA | – | delivers small RNA | –
CC/C=C\C/C=C\C/C=C\C/C=C\C/C=C\CCCC(=O)OCC(COC(=O)CCCCCCC/C=C\CCCCCCCC)OC(=O)CCCCCCC/C=C\C/C=C\CCCCC (stereo not drawn) [No. 67, Triglyceride (18:1/18:2 /20:5)] | significantly better than or equivalent to that of POPC | delivers small RNA | delivers small RNA | – | – | delivers small RNA
CC/C=C\C/C=C\C/C=C\CCCCCCCC(=O)OCC(COC(=O)CCCCCCCCCCCCCCC)OC(=O)CCCCCCC/C=C\C/C=C\CCCCC (stereo not drawn) [No. 56, Triglyceride (16:0/18:2/ 18:3)] | significantly better than or equivalent to that of POPC | delivers small RNA | – | delivers small RNA | – | –
CCCCC/C=C\C/C=C\CCCCCCCC(=O)OC[C@H](CO)OC(=O)CCCCCCC/C=C\C/C=C\CCCCC [No. 35, (2S)-1-hydroxy-3-[(9Z,12Z)-octadeca-9,12-dienoyloxy] propan-2-yl (9Z,12Z)-octadeca-9,12-dienoate] | significantly better than or equivalent to that of POPC | delivers small RNA | – | – | delivers small RNA | –
Dilinolenin [No. 70] | significantly better than or equivalent to that of POPC | delivers small RNA | – | – | – | delivers small RNA
